One assay addresses JAK2 (Homo sapiens (Human), UniProt O60674). Kind of assay: Jak Biochemical HTRF Assay, JAK2. As to conditions: HTRF biochemical assay, GST-tagged catalytic domain; top concentration tested […]. The source says:
(§1) Jak Biochemical HTRF Assay Protocol
(§2) Subsequent reagent additions employed an Agilent Bravo.
In general terms: Time-resolved FRET reads energy transfer from a long-lived donor to a nearby acceptor.

A further assay has as its target JAK1 (Homo sapiens (Human), UniProt P23458). Briefly: Jak Biochemical HTRF Assay, JAK1. As to conditions: HTRF biochemical assay, GST-tagged catalytic domain; top concentration tested […]; read-out: JAK1 IC50.
Description: as §1, §2

Molecules are shown by their SMILES.

The term IC50 denotes the concentration that gives 50% inhibition.

JAK2, sequence (O60674 849-1124): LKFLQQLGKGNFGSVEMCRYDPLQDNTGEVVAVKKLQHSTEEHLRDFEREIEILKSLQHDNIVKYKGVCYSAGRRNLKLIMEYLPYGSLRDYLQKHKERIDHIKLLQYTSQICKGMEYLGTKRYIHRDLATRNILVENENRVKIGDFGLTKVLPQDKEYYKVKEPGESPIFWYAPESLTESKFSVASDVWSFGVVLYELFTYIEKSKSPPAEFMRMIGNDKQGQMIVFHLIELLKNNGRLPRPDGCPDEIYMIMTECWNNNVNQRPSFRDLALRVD
JAK1, sequence (P23458 875-1153): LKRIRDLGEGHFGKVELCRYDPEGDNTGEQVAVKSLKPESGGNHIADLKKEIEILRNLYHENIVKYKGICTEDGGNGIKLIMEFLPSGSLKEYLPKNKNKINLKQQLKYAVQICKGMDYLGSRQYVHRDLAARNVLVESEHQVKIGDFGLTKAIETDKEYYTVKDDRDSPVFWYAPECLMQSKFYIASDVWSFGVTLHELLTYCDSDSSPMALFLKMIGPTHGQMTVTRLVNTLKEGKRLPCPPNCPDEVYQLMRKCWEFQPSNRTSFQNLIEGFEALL

Regarding `N#CCC1(n2cc(C(N)=O)c(Nc3ccc(F)cc3)n2)CCS(=O)(=O)CC1` [Example 8, 1-(4-(Cyanomethyl)-1,1-dioxidotetrahydro-2H-thiopyran-4-yl)-3-((4-fluorophenyl)amino)-1H-pyrazole-4-carboxamide], the 50% inhibitory concentration (IC50) against JAK2 is 813 nM; at JAK1, 50 nM.
As for `CC(C)(C)OC(=O)N1CCC(CC#N)(n2cc(C(N)=O)c(Nc3ccnc(F)c3)n2)CC1` [Example 9-1, tert-Butyl 4-{4-carbamoyl-3-[(2-fluoropyridin-4-yl)amino]-1H-pyrazol-1-yl}-4-(cyanomethyl)piperidine-1-carboxylate], the IC50 at JAK2 was determined as 5 nM; on JAK1 it was 0.2 nM.
On the same counts, the results for `COC(=O)c1ccc(Nc2nn(C3(CC#N)CCN(C(=O)OC(C)(C)C)CC3)cc2C(N)=O)cc1` [Example 9-2, tert-butyl 4-(4-carbamoyl-3-{[4-(methoxycarbonyl)phenyl]amino}-1H-pyrazol-1-yl)-4-(cyanomethyl)piperidine-1-carboxylate] are 9 nM and 0.3 nM.
Consider `CC(C)(C)OC(=O)N1CCC(CC#N)(n2cc(C(N)=O)c(Nc3ccc(F)cc3)n2)CC1` [Example 9-3, tert-butyl 4-{4-carbamoyl-3-[(4-fluorophenyl)amino]-1H-pyrazol-1-yl}-4-(cyanomethyl)piperidine-1-carboxylate], for which the concentration for half-maximal inhibition (IC50) came to 21 nM against JAK2 and 0.8 nM at JAK1.
On the same counts, the results for `CNC(=O)c1ccc(Nc2nn(C3(CC#N)CCN(C(=O)OC(C)(C)C)CC3)cc2C(N)=O)cc1` [Example 9-4, tert-Butyl 4-[4-(aminocarbonyl)-3-({4-[(methylamino)carbonyl]phenyl}amino)-1H-pyrazol-1-yl]-4-(cyanomethyl)piperidine-1-carboxylate] are 2 nM and 0.1 nM.
`CC(C)(C)OC(=O)N1CCC(CC#N)(n2cc(C(N)=O)c(Nc3ccc(C#N)cc3)n2)CC1` [Example 9-5, tert-butyl 4-{4-carbamoyl-3-[(4-cyanophenyl)amino]-1H-pyrazol-1-yl}-4-(cyanomethyl)piperidine-1-carboxylate]: the IC50 at JAK2 was 6 nM; at JAK1, 0.2 nM.
For the molecule `CC(C)(C)OC(=O)N1CCC(CC#N)(n2cc(C(N)=O)c(Nc3ccc(C(C)(C)O)nc3)n2)CC1` [Example 9-6, tert-butyl 4-(4-carbamoyl-3-(6-(2-hydroxypropan-2-yl)pyridin-3-ylamino)-1H-pyrazol-1-yl)-4-(cyanomethyl)piperidine-1-carboxylate], the half-maximal inhibitory concentration (IC50) came out at 3 nM on JAK2 and 0.8 nM on JAK1.
Regarding `CC(O)c1ccc(Nc2nn(C3(CC#N)CCN(C(=O)OC(C)(C)C)CC3)cc2C(N)=O)cn1` (stereo not shown) [Example 9-7, tert-butyl 4-(4-carbamoyl-3-(6-(1-hydroxyethyl)pyridin-3-ylamino)-1H-pyrazol-1-yl)-4-(cyanomethyl)piperidine-1-carboxylate], the results for the 50% inhibitory concentration (IC50) on JAK2 and at JAK1 were 2 nM and 0.5 nM, respectively.
The corresponding values for `CC(C)(C)OC(=O)N1CCC(CC#N)(n2cc(C(N)=O)c(Nc3ccc(C(C)(C)O)cc3)n2)CC1` [Example 9-8, tert-butyl 4-(4-carbamoyl-3-(4-(2-hydroxypropan-2-yl)phenylamino)-1H-pyrazol-1-yl)-4-(cyanomethyl)piperidine-1-carboxylate] are 3 nM and 0.3 nM.
The corresponding values for `CC(O)c1ccc(Nc2nn(C3(CC#N)CCN(C(=O)OC(C)(C)C)CC3)cc2C(N)=O)cc1` (stereo not shown) [Example 9-9, tert-butyl 4-(4-carbamoyl-3-(4-(1-hydroxyethyl)phenylamino)-1H-pyrazol-1-yl)-4-(cyanomethyl)piperidine-1-carboxylate] are 6 nM and 0.4 nM.
As for `CC(=O)c1ccc(Nc2nn(C3(CC#N)CCN(C(=O)OC(C)(C)C)CC3)cc2C(N)=O)cc1` [Example 9-10, tert-butyl 4-(3-(4-acetylphenylamino)-4-carbamoyl-1H-pyrazol-1-yl)-4-(cyanomethyl)piperidine-1-carboxylate], the IC50 against JAK2 turned out to be 3 nM; at JAK1, 0.2 nM.
On to `CC(C)(C)OC(=O)N1CCC(CC#N)(n2cc(C(N)=O)c(Nc3ccc(C(=O)C(F)(F)F)cc3)n2)CC1` [Example 9-11, tert-butyl 4-(4-carbamoyl-3-{[4-(trifluoroacetyl)phenyl]amino}-1H-pyrazol-1-yl)-4-(cyanomethyl)piperidine-1-carboxylate], for which the values for the concentration for half-maximal inhibition (IC50) against JAK2 and on JAK1 were 3 nM and 0.2 nM, respectively.
On the same counts, the results for `CC(C)(C)OC(=O)N1CCC(CC#N)(n2cc(C(N)=O)c(Nc3ccc(C#N)nc3)n2)CC1` [Example 9-12, tert-butyl 4-{4-carbamoyl-3-[(6-cyanopyridin-3-yl)amino]-1H-pyrazol-1-yl}-4-(cyanomethyl)piperidine-1-carboxylate] are 6 nM and 0.5 nM.
In the case of `Cn1ccc(-c2ccc(Nc3nn(C4(CC#N)CCN(C(=O)OC(C)(C)C)CC4)cc3C(N)=O)cc2)n1` [Example 9-13, tert-butyl 4-(4-carbamoyl-3-{[4-(1-methyl-1H-pyrazol-3-yl)phenyl]amino}-1H-pyrazol-1-yl)-4-(cyanomethyl)piperidine-1-carboxylate], the 50% inhibitory concentration (IC50) at JAK2 stood at 138 nM; on JAK1 it was 3 nM.
Take `CC(C)(C)OC(=O)N1CCC(CC#N)(n2cc(C(N)=O)c(Nc3ccnc(N)c3)n2)CC1` [Example 9-14, tert-butyl 4-{3-[(2-aminopyridin-4-yl)amino]-4-carbamoyl-1H-pyrazol-1-yl}-4-(cyanomethyl)piperidine-1-carboxylate]: the values for the half-inhibitory concentration (IC50) against JAK2 and at JAK1 were 3 nM and 0.2 nM, respectively.
Regarding `CC(C)(C)OC(=O)N1CCC(CC#N)(n2cc(C(N)=O)c(Nc3ccc(S(=O)(=O)C(F)F)cc3)n2)CC1` [Example 9-16, tert-butyl 4-[4-carbamoyl-3-({4-[(difluoromethyl)sulfonyl]phenyl}amino)-1H-pyrazol-1-yl]-4-(cyanomethyl)piperidine-1-carboxylate], the half-maximal inhibitory concentration (IC50) against JAK2 was found to be 0.6 nM; on JAK1, 0.09 nM.
On the same counts, the results for `Cc1cc(Nc2nn(C3(CC#N)CCN(C(=O)OC(C)(C)C)CC3)cc2C(N)=O)ccn1` [Example 9-17, tent-butyl 4-{4-carbamoyl-3-[(2-methylpyridin-4-yl)amino]-1H-pyrazol-1-yl}-4-(cyanomethyl)piperidine-1-carboxylate] are 133 nM and 15 nM.
For the molecule `CC(C)(C)OC(=O)N1CCC(CC#N)(n2cc(C(N)=O)c(Nc3ccnc(CO)c3)n2)CC1` [Example 9-18, tert-butyl 4-(4-carbamoyl-3-{[2-(hydroxymethyl)pyridin-4-yl]amino}-1H-pyrazol-1-yl)-4-(cyanomethyl)piperidine-1-carboxylate], the IC50 is 101 nM against JAK2 and 6 nM at JAK1.
On to `CC(C)(C)OC(=O)N1CCC(CC#N)(n2cc(C(N)=O)c(Nc3ccc(S(N)(=O)=O)cc3)n2)CC1` [Example 9-20, tert-butyl 4-{4-carbamoyl-3-[(4-sulfamoylphenyl)amino]-1H-pyrazol-1-yl}-4-(cyanomethyl)piperidine-1-carboxylate], for which the IC50 is 1 nM at JAK2 and 0.1 nM at JAK1.
Regarding `CN(C)S(=O)(=O)c1ccc(Nc2nn(C3(CC#N)CCN(C(=O)OC(C)(C)C)CC3)cc2C(N)=O)cc1` [Example 9-21, tert-butyl 4-(4-carbamoyl-3-{[4-(dimethylsulfamoyl)phenyl]amino}-1H-pyrazol-1-yl)-4-(cyanomethyl)piperidine-1-carboxylate], the IC50 against JAK2 was found to be 0.8 nM; on JAK1, 0.3 nM.
In the case of `CC(C)(C)OC(=O)N1CCC(CC#N)(n2cc(C(N)=O)c(Nc3ccc(C(=O)N4CCOCC4)c(F)c3)n2)CC1` [Example 9-24, tert-butyl 4-(4-carbamoyl-3-{[3-fluoro-4-(morpholin-4-ylcarbonyl)phenyl]amino}-1H-pyrazol-1-yl)-4-(cyanomethyl)piperidine-1-carboxylate], the IC50 against JAK2 stood at 0.7 nM; on JAK1 it was 0.2 nM.
`CC(C)(C)OC(=O)N1CCC(CC#N)(n2cc(C(N)=O)c(Nc3ccc(C(=O)N4CCOCC4)cc3)n2)CC1` [Example 9-25, tert-butyl 4-(4-carbamoyl-3-{[4-(morpholin-4-ylcarbonyl)phenyl]amino}-1H-pyrazol-1-yl)-4-(cyanomethyl)piperidine-1-carboxylate]: the IC50 against JAK2 came out at 0.7 nM; on JAK1, 0.3 nM.
The corresponding values for `CC(C)(C)OC(=O)N1CCC(CC#N)(n2cc(C(N)=O)c(Nc3ccc(C#N)c(F)c3)n2)CC1` [Example 9-26, tert-butyl 4-{4-carbamoyl-3-[(4-cyano-3-fluorophenyl)amino]-1H-pyrazol-1-yl}-4-(cyanomethyl)piperidine-1-carboxylate] are 7 nM and 0.4 nM.
In the case of `CC(C)(C)OC(=O)N1CCC(CC#N)(n2cc(C(N)=O)c(Nc3ccc(F)c(F)c3)n2)CC1` [Example 9-28, tert-butyl 4-{4-carbamoyl-3-[(3,4-difluorophenyl)amino]-1H-pyrazol-1-yl}-4-(cyanomethyl)piperidine-1-carboxylate], the IC50 on JAK2 is 24 nM; at JAK1, 1 nM.
Turning to `CC(C)(C)OC(=O)N1CCC(CC#N)(n2cc(C(N)=O)c(Nc3ccnc(Cl)c3)n2)CC1` [Example 9-29, tert-butyl 4-{4-carbamoyl-3-[(2-chloropyridin-4-yl)amino]-1H-pyrazol-1-yl}-4-(cyanomethyl)piperidine-1-carboxylate], the concentration for half-maximal inhibition (IC50) at JAK2 amounted to 3 nM; at JAK1 it was 0.1 nM.
With `Cc1noc(-c2ccc(Nc3nn(C4(CC#N)CCN(C(=O)OC(C)(C)C)CC4)cc3C(N)=O)cc2)n1` [Example 9-30, tert-butyl 4-(4-carbamoyl-3-{[4-(3-methyl-1,2,4-oxadiazol-5-yl)phenyl]amino}-1H-pyrazol-1-yl)-4-(cyanomethyl)piperidine-1-carboxylate], the half-maximal inhibitory concentration (IC50) against JAK2 stood at 5 nM; on JAK1 it was 0.2 nM.

The values are drawn from US9328099B2, “Cyanomethylpyrazole carboxamides as janus kinase inhibitors” (Merck Sharp & Dohme Corp., priority 2011, dated 2016).
